Consider 55 molecules from ChEMBL document CHEMBL2046395, “Discovery of nitroheterocycles active against African trypanosomes. In vitro screening and preliminary SAR studies” (Bioorg Med Chem Lett, 2012).

For one series, the system named is L6. As to the kind of experiment: Cytotoxicity against rat L6 cells. The series is classed as cell-based.
Series [1] is described as follows: Selectivity index, ratio of IC50 for rat L6 cells to IC50 for Trypanosoma brucei rhodesiense STIB900. Conditions: read-out: Ratio IC50. Type of series: toxicity, cell-based.
In series [2] the test system is Trypanosoma brucei rhodesiense. As to the kind of experiment: Antitrypanosomal activity against Trypanosoma brucei rhodesiense STIB900 by Alamar blue growth inhibition assay. Type of series: functional, organism-based. In general terms: Alamar Blue is a resazurin reagent that responds to reducing activity.

Each structure is given as a SMILES string.

Turning to `CN1C(=O)C2Cc3ccccc3CCN2c2ccc([N+](=O)[O-])cc21` (stereo not drawn), the IC50 (commonly the concentration needed to halve the response being measured) came out at 15.1 µM in the series on L6 and 63.4 µM in series [2]. The selectivity ratio in series [1] amounted to 0.2.
`CN(C)CCCOc1nn(Cc2ccccc2F)c2ccc([N+](=O)[O-])cc12`: the IC50 with L6 was 32 µM; in series [2], 5.2 µM. Further, the selectivity ratio in series [1] turned out to be 6.1.
Molecule `COc1cc([C@@H]2c3cc4c(cc3[C@H](O)[C@H]3COC(=O)[C@H]23)OCO4)cc(OC)c1OC` [PODOFILOX] came in with an IC50 in the series with L6 of 0.019 µM.
As to `O=[N+]([O-])c1ccc2[nH]nc(OCc3ccccc3Cl)c2c1`, the IC50 came to 30.5 µM in the series on L6 and 73.4 µM in series [2]. In series [1], the selectivity ratio is 0.4.
Take `CSc1ccc(OCc2ncc([N+](=O)[O-])n2C)cc1` [FEXINIDAZOLE]: the selectivity ratio in series [1] was greater than 322. The same molecule came in with an IC50 in series [2] of 1.71 µM.
For the molecule `CN(C)NC(=O)c1cc([N+](=O)[O-])ccc1Cl`, the IC50 (in the series with L6; in series [2]) was greater than 410 µM each time.
Consider `O=C(NN(Cc1ccccc1)Cc1ccccc1)c1cc([N+](=O)[O-])ccc1Cl`, for which the IC50 in the series on L6 came to 41.7 µM; in series [2] it was 37.6 µM. Further, the selectivity ratio in series [1] was determined as 1.1.
The like results for `O=c1c2cc([N+](=O)[O-])ccc2[nH]n1Cc1ccccc1` were, in that order, 234 µM, 163 µM and 1.4.
The like results for `O=C(NCc1cc([N+](=O)[O-])ccc1N1CCc2ccccc2C1)NCc1cc([N+](=O)[O-])ccc1N1CCc2ccccc2C1` were, in that order, greater than 168 µM, 7.1 µM and greater than 23.6.
For the molecule `[O-]C1=N[N+]2(CCCCC2)c2ccccc21`, the 50% inhibitory concentration (IC50) (in the series on L6; in series [2]) was greater than 494 µM in each case.
On to `O=C(NN1CCCCC1)c1cc([N+](=O)[O-])ccc1Cl`, for which the IC50 with L6 is greater than 352 µM; in series [2], 212 µM. In addition, the selectivity ratio in series [1] is greater than 1.7.
The like results for `O=C(NN1CCc2ccccc2C1)c1cc([N+](=O)[O-])ccc1F` were, in that order, greater than 317 µM, 23.1 µM and greater than 13.7.
The corresponding values for `CN1C(=O)CN(CCCCCN2CCCCC2)c2ccc([N+](=O)[O-])cc21` are 52.3 µM, 14.6 µM and 3.6.
For `O=c1[nH]n(-c2ccccc2)c2ccc([N+](=O)[O-])cc12`, the IC50 in the series on L6 came to 158 µM; in series [2], 109 µM. Moreover, in series [1], the selectivity ratio is 1.4.
The like results for `CON1C(=O)C2CCCCN2c2ccc([N+](=O)[O-])cc21` (stereo not drawn) were, in that order, 67.4 µM, 122 µM and 0.6.
The corresponding values for `C[n+]1cccc2c(=O)n3n(c21)Cc1ccccc1C3` are greater than 263 µM, 241 µM and greater than 1.1.
Take `O=c1c2cc([N+](=O)[O-])ccc2n2n1Cc1ccccc1CC2`: the results for the IC50 (in the series with L6; in series [2]) were greater than 338 µM and 86.4 µM, respectively. In addition, the selectivity ratio in series [1] was greater than 4.
`O=C(NN1Cc2ccccc2C1)c1ccccc1F`: the IC50 is 241 µM in the series on L6 and 166 µM in series [2]. The selectivity ratio in series [1] came out at 1.5.
Take `O=C(NN(c1ccccc1)c1ccccc1)c1cc([N+](=O)[O-])ccc1Cl`: the IC50 in the series with L6 was 13.3 µM; in series [2], 7.4 µM. For the same molecule, the selectivity ratio in series [1] amounted to 1.8.
The corresponding values for `COc1nn(Cc2ccccc2Cn2nc(OC)c3ccccc32)c2ccccc12` are 44.7 µM, 101 µM and 0.4.
Consider `Cn1[nH]c(=O)c2cc([N+](=O)[O-])ccc21`, for which the IC50 with L6 is greater than 517 µM; in series [2] it was 313 µM. Besides, the selectivity ratio in series [1] is greater than 1.7.
As to `O=C(NN1Cc2ccccc2CN1)c1cc([N+](=O)[O-])ccc1Cl`, the IC50 worked out at 180 µM in the series on L6 and 82.2 µM in series [2]. For the same molecule, the selectivity ratio in series [1] came to 2.2.
The corresponding values for `CCCCn1c2ccc([N+](=O)[O-])cc2c(=O)n1Cc1ccccc1` are 46.7 µM, 48.9 µM and 1.
The like results for `CN(C)CCOc1nn(Cc2ccccc2)c2ccc([N+](=O)[O-])cc12` were, in that order, 57.6 µM, 10.8 µM and 5.3.
The like results for `O=[N+]([O-])c1ccc2c(c1)C([O-])=N[N+]21CCCCCC1` were, in that order, greater than 382 µM, 192 µM and greater than 2.
Consider `CCCn1c2ccc([N+](=O)[O-])cc2c(=O)n1Cc1ccccc1`, for which the IC50 was determined as 77.4 µM in the series with L6 and 20 µM in series [2]. In addition, the selectivity ratio in series [1] amounted to 3.9.
The like results for `O=C(NN(Cc1ccccc1)Cc1ccccc1)c1ccccc1Cl` were, in that order, 50.7 µM, 55.9 µM and 0.9.
As to `O=C(NN(Cc1ccccc1)Cc1ccccc1)c1ccccc1` [N',N'-DIBENZYLBENZOHYDRAZIDE], the IC50 (with L6; in series [2]) was greater than 316 µM in each case.
Consider `Cn1c(=O)c2cc([N+](=O)[O-])ccc2n1Cc1ccccc1`, for which the IC50 amounted to 166 µM in the series on L6 and 163 µM in series [2]. In addition, in series [1], the selectivity ratio came to 1.
On to `O=[N+]([O-])c1ccc2c(c1)c(OCc1ccccc1)nn2Cc1ccccc1-c1ccccc1Cn1nc(OCc2ccccc2)c2cc([N+](=O)[O-])ccc21`, for which the IC50 in the series on L6 is greater than 139 µM; in series [2], 80.5 µM. In series [1], the selectivity ratio is greater than 1.7.
The like results for `O=C(NN1Cc2ccccc2C1)c1cc([N+](=O)[O-])ccc1Cl` were, in that order, 19.8 µM, 97.3 µM and 0.2.
On to `O=c1c2cc([N+](=O)[O-])ccc2n(Cc2ccccc2)n1Cc1ccccc1`, for which the IC50 in the series with L6 is 37.3 µM; in series [2] it was 49.5 µM. In addition, in series [1], the selectivity ratio was 0.8.
The like results for `O=C(NN1Cc2ccccc2C1)c1cc([N+](=O)[O-])ccc1F` were, in that order, greater than 331 µM, 40.2 µM and greater than 8.3.
The corresponding values for `COc1nn(Cc2ccccc2F)c2ccc([N+](=O)[O-])cc12` are greater than 332 µM, 191 µM and greater than 1.7.
Take `O=C(NN1Cc2ccccc2C1)c1cccnc1Cl`: the IC50 (in the series with L6; in series [2]) was greater than 365 µM throughout.
Turning to `CCOc1ccc([N+](=O)[O-])cc1C(=O)NN(c1ccccc1)c1ccccc1`, the IC50 turned out to be 185 µM in the series with L6 and 14.2 µM in series [2]. The selectivity ratio in series [1] is 13.
Take `O=C1CN(CCCCCN2CCCCC2)c2ccc([N+](=O)[O-])cc2N1`: the IC50 in the series with L6 came out at 97.1 µM; in series [2], 21.2 µM. Further, the selectivity ratio in series [1] came to 4.6.
The corresponding values for `CN1C(=O)C2Cc3ccccc3CN2c2ccc([N+](=O)[O-])cc21` (stereo not drawn) are 18.7 µM, 61.1 µM and 0.3.
Consider `O=c1c2cc([N+](=O)[O-])ccc2n2n1Cc1ccccc1C2`, for which the IC50 with L6 came to 222 µM; in series [2], 66.8 µM. In series [1], the selectivity ratio turned out to be 3.3.
The corresponding values for `O=[N+]([O-])c1ccc2c(c1)CC([O-])=N[N+]21CCCCC1` are 324 µM, 198 µM and 1.6.
The like results for `O=C(NN1Cc2ccccc2C1)c1ccccc1` were, in that order, 68.4 µM, greater than 419 µM and 0.2.
The corresponding values for `O=C(Cc1cc([N+](=O)[O-])ccc1F)NN1Cc2ccccc2C1` are 168 µM, 180 µM and 0.9.
Consider `O=c1[nH]n(Cc2ccccc2F)c2ccc([N+](=O)[O-])cc12`, for which the IC50 with L6 turned out to be 210 µM; in series [2], 168 µM. Also, the selectivity ratio in series [1] stood at 1.3.
As to `O=C(Cc1cc([N+](=O)[O-])ccc1F)NN1CCCCC1`, the values for the IC50 (in the series with L6; in series [2]) were greater than 355 µM and 320 µM, respectively. Besides, in series [1], the selectivity ratio was greater than 1.1.
`Cn1c2ccc([N+](=O)[O-])cc2c(=O)n1-c1ccccc1`: the IC50 in the series on L6 is 66.5 µM; in series [2], 138 µM. Also, the selectivity ratio in series [1] stood at 0.5.
The like results for `O=C(NN(c1ccccc1)c1ccccc1)c1cc([N+](=O)[O-])ccc1F` were, in that order, 3.2 µM, 5.6 µM and 0.6.
The corresponding values for `COc1nn(Cc2ccccc2Cn2nc(OC)c3cc([N+](=O)[O-])ccc32)c2ccc([N+](=O)[O-])cc12` are greater than 204 µM, 119 µM and greater than 1.7.
In the case of `O=c1c2cc([N+](=O)[O-])ccc2[nH]n1Cc1ccccn1`, the IC50 in the series on L6 amounted to 286 µM; in series [2], 252 µM. The selectivity ratio in series [1] was found to be 1.1.
The like results for `O=C(NN(Cc1ccccc1)Cc1ccccc1)c1cc([N+](=O)[O-])ccc1F` were, in that order, 19.3 µM, 17.1 µM and 1.1.
The corresponding values for `O=C(NN1CCc2ccccc2C1)c1cc([N+](=O)[O-])ccc1Cl` are 22 µM, 55.5 µM and 0.4.
The corresponding values for `COc1nn(Cc2cccc(Cn3nc(OC)c4cc([N+](=O)[O-])ccc43)n2)c2ccc([N+](=O)[O-])cc12` are 151 µM, 57.6 µM and 2.6.
For the molecule `CN1C(=O)C2=Cc3ccccc3CCN2c2ccc([N+](=O)[O-])cc21`, the results for the IC50 (in the series with L6; in series [2]) were greater than 311 µM and 191 µM, respectively. Also, the selectivity ratio in series [1] was greater than 1.6.
The corresponding values for `Cn1c2ccc([N+](=O)[O-])cc2c(=O)n1Cc1ccccc1` are 43.4 µM, 8.2 µM and 5.3.
As to `CN1C(=O)C2CCCCN2c2ccc([N+](=O)[O-])cc21` (stereo not drawn), the figures for the IC50 (with L6; in series [2]) were 102 µM and 154 µM, respectively. For the same molecule, the selectivity ratio in series [1] turned out to be 0.7.
`O=C1C[N+]2(CCCCC2)c2ccc([N+](=O)[O-])cc21`: the values for the IC50 (with L6; in series [2]) were 84.9 µM and 213 µM, respectively. Moreover, the selectivity ratio in series [1] is 0.4.
